The values that follow come from patent US6485924B2, “Method for identifying inhibitors of cytokinesis” (Boehringer Ingelheim International GmbH, priority 1999, dated 2002).

The conditions of experiment [1]: literature values; tubulin: pure, in glycerol buffer; cited from earlier work.
Experiment [2] deals with T1, XSepA (Xenopus laevis, UniProt Q9DE33).
T1 construct: made in house; host or cells: E. coli BL21(DE3)
T1 sequence (Q9DE33 1-356): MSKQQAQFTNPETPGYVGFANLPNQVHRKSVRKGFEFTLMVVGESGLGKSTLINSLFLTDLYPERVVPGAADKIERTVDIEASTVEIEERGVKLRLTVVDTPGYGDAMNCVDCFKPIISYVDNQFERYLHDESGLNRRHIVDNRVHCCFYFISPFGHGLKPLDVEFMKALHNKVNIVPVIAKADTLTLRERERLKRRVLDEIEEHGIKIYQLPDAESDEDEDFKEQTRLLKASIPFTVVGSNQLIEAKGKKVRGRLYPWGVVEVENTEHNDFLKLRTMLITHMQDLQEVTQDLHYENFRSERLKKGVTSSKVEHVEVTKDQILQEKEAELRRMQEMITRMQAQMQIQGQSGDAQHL
The experiment in a line: Filament assembly / polymerization followed by immunofluorescence microscopy. As to conditions: for filamentous structures observed: control nucleotide used instead of GTP, 30 minutes; for length of the lag phase of polymerization: 1 mg/ml XSepA, 0.1 mM nucleotide; for critical concentration for XSepA polymerization: 30 min incubation with nucleotide. The class given is biochemical. The protocol:
(§1) Polymerization reactions were carried out in S-buffer in the presence of 5 mM MgCl2 and GTP, GTP-γ-S, GDP or ATP (Gibco). Before nucleotide addition, all samples were pre-cleared in an ultracentrifuge (see below). Aliquots of the reaction were diluted to a final septin concentration of 3.3 μg/ml, and 100 μl drops spotted on glass coverslips for 1 min. Before use, coverslips were soaked with an acetone solution of 0.5% 3-aminopropyltriethoxy-silane (Sigma), washed in acetone and air-dried. Following sample application, the coverslips were washed with 2 ml S-buffer, fixed in cold methanol for 10 min and stained with a polyclonal rabbit antibody raised against an N-terminal peptide of XSepA (M. Glotzer and T. Hyman, in preparation). Secondary antibodies were DTAF-coupled anti-rabbit (Dianova). Images were acquired using a Zeiss Axioplan II microscope and Adobe Photoshop software. Processing and analysis of immunofluorescence images was performed on a Macintosh computer using the public domain NIH Image program (developed at the U.S. National Institutes of Health and available at http://rsb.info.nih.gov/nih-image). Thresholded binary images were generated, and particle length was obtained by measuring the major axis of the best fitting ellipse. Particles with length <0.4 μm were not included in the analysis. Although filaments tended to be straight, this procedure results in underestimation of the length of curved filaments. For sedimentation assays, 20 μl polymerization reactions containing 1 mg/ml septin were pre-cleared in an ultracentrifuge at 279000×g for 15 min at 4° C. Precleared samples were incubated with nucleotide at room temperature for 30 min and spun through a 50% glycerol cushion at 279000×g for 15 min at 25° C.
Filament forming proteins like actin, tubulin and FtsZ polymerize in a nucleotide-dependent fashion. To test whether septin filament assembly is regulated by a similar mechanism, XSepA was incubated with GTP (or its slowly hydrolyzable analogue GTP-γ-S) for 30 minutes and spotted onto glass coverslips. After the coverslips were fixed and stained with anti-XSepA antibody, filamentous structures of up to 7 μm in length were observed. […] FIGS. 2A and 2B depict the GTP-dependent assembly of XSepA and Δcc-SepA filaments. Top panels: Immunostainings of septin preparations (1 mg/ml) incubated with 0.1 mM of the indicated nucleotide for 30 min and diluted in S-buffer prior to fixation. Filamentous structures are observed with both full-length (A) and Δcc-SepA (B) only in the presence of GTP or GTP-γ-S. Bottom panels: Identical reactions were centrifuged through a 50% glycerol cushion at 279000×g for 15 min. Supernatants (S) and pellets (P) were collected and resolved by gel electrophoresis.
To gain insight into the polymerization mechanism of XSepA, the kinetics of the filament formation reaction was followed using immunofluorescence microscopy. At different times after GTP addition, aliquots of septin protein were processed for immunofluorescence as already described. For each time point, individual septin filaments were counted and their lengths measured. The length of all the filaments present in a field was added, and the result (proportional to the polymer mass) was plotted against time. Immunofluorescence images were acquired as described and the length of the filaments was measured (see Methods section). The relative polymer mass was obtained by adding the length of all the filaments present in a field. Each point represents data from four random fields. Only filaments of ≧400 nm in length were considered in the analysis. (A) Time course of filament assembly. At different times following nucleotide addition to 0.1 mM (t=0 min) aliquots of a reaction containing 1 mg/ml XSepA were diluted 300-fold and spotted on coverslips for 1 min before washing and fixation. (B) Determination of the critical concentration for polymerization. […]

In experiment [3] the target is T1, XSepA. In words: GTP filter binding assay. To be noted: for ability of cold nucleotide to compete with the radiolabeled guanine nucleotide: data not shown. As for the experimental part:
For GTP binding, 1 μM of XSepA (or Δcc-SepA) in S-buffer was incubated with 0.1 mg/ml BSA, 5 mM MgCl2 and 4.4 μM ^3H-GTP (4.60 Ci/mmol, 1 mCi/ml; Amersham). At time intervals, aliquots of the reaction were diluted in cold wash buffer (20 mM Tris pH 8.0, 50 mM NaCl, 5 mM MgCl2) and filtered through pre-wetted nitrocellulose circles (Schleicher and Schuell) Filters were washed with 10 ml of wash buffer, dried, and the retained radioactivity quantified in a scintillation counter.
The ability of recombinant XSepA to bind guanine nucleotide was tested by using a filter binding assay. […] To assay for GTP hydrolysis, XSepA was incubated with limiting amounts of [α-^32P]GTP and the production of radioactive GDP was followed by thin layer chromatography. […] FIGS. 1C and 1D show time courses of GTP binding and hydrolysis by XSepA and Δcc-SepA. Recombinant protein (1 μM) was incubated with an excess of [^3H]GTP to quantify nucleotide binding, or with sub-stoichiometric amounts of [α-^32P]GTP to detect nucleotide hydrolysis. (C) GTP binding as determined by a filter-binding assay. (D) TLC plate showing generation of radioactive GDP from GTP. Aliquots of the reaction were quenched in a denaturing solution at the indicated time, and the nucleotide content was resolved by TLC. BSA (0.1 mg/ml) was used as a negative control in both experiments.)

The target of experiment [4] is T1, XSepA. The experiment in a line: Filament sedimentation assay through glycerol cushion. As to conditions: 1 mg/ml septin, 0.1 mM nucleotide, 30 min, 279000×g. The class given is biochemical. As for the experimental part: as §1, with “Although filaments tended to be straight, this procedure results in underestimation of the length of curved filaments. For sedimentation assays, 20 μl polymerization reactions containing 1 mg/ml septin were pre-cleared in an ultracentrifuge at 279000×g for 15 min at 4° C. Precleared samples were incubated with nucleotide at room temperature for 30 min and spun through a 50% glycerol cushion at 279000×g for 15 min at 25° C.” left out

Another experiment addresses T2, XSepA filaments (Xenopus laevis, UniProt Q9DE33).
T2 construct: made in house; host or cells: E. coli BL21(DE3)
T2 sequence (Q9DE33 1-356): T1 sequence (Q9DE33 1-356)
In words: Dilution-induced filament depolymerization. The class given is biochemical. As to conditions: 20 min after 600-fold dilution into buffer. As for the experimental part: To gain insight into the polymerization mechanism of XSepA, the kinetics of the filament formation reaction was followed using immunofluorescence microscopy. At different times after GTP addition, aliquots of septin protein were processed for immunofluorescence as already described. For each time point, individual septin filaments were counted and their lengths measured. The length of all the filaments present in a field was added, and the result (proportional to the polymer mass) was plotted against time. Immunofluorescence images were acquired as described and the length of the filaments was measured (see Methods section). The relative polymer mass was obtained by adding the length of all the filaments present in a field. Each point represents data from four random fields. Only filaments of ≧400 nm in length were considered in the analysis. (A) Time course of filament assembly. […] Polymer content was determined after 30 min incubation. […] In (B) and (C) a curve was fitted to the data points where filaments were detected.
To address the role of GTP hydrolysis in septin filament formation, the polymerization kinetics of XSepA in the presence of a slowly hydrolysable GTP analogue, GTP-γ-S, was studied. […] To investigate directly whether nucleotide hydrolysis promotes disassembly, filaments assembled with GTP or GTP-γ-S were diluted 600-fold into buffer and depolymerization rates were determined. […]

Take actin: in experiment [1], the “critical concentration for polymerization” value was about 0.2 µM.
Regarding `Nc1nc2c(ncn2[C@@H]2O[C@H](COP(=O)(O)OP(=O)(O)O)[C@@H](O)[C@H]2O)c(=O)[nH]1` [GDP], the filamentous structures observed result on XSepA [2] is reported as “This was not the case”. The “ability of cold nucleotide to compete with the radiolabeled guanine nucleotide” value on XSepA [3] was “not”.
Taken in the same sequence, the figures for `Nc1ncnc2c1ncn2[C@@H]1O[C@H](COP(=O)(O)OP(=O)(O)OP(=O)(O)O)[C@@H](O)[C@H]1O` [ATP] were “This was not the case” and “not”.
In the case of `Nc1nc2c(ncn2[C@@H]2O[C@H](COP(=O)(O)OP(=O)(O)OP(=O)(O)O)[C@@H](O)[C@H]2O)c(=O)[nH]1` [GTP, guanosine triphosphate], the “sedimentable fraction of septin after incubation with nucleotide” value on XSepA [4] is “increased significantly”. Also, the depolymerization after dilution result at XSepA filaments was “essentially complete”. In addition, at XSepA [2], the “length of the lag phase of polymerization” value was found to be 5 min and the “critical concentration for XSepA polymerization” value was 0.5 mg/mL. Also, the “ability of cold nucleotide to compete with the radiolabeled guanine nucleotide” value at XSepA [3] was “able to compete”. Also, the GTP binding plateau at XSepA [3] (filter binding, excess [3H]GTP) is listed as 0.4-0.5 moles GTP/moles of XSepA. Besides, the “time to essentially complete maximum of nucleotide binding” value on XSepA [3] (limiting concentration of nucleotide, not shown) is at most 5 min.
As to `Nc1nc2c(ncn2[C@@H]2O[C@H](COP(=O)(O)OP(=O)(O)OP(O)(O)=S)[C@@H](O)[C@H]2O)c(=O)[nH]1` [GTP-γ-S], at XSepA [4], the “sedimentable fraction of septin after incubation with nucleotide” value is reported as “increased significantly”. Moreover, the filaments still present entry on XSepA filaments was “ca. 30 % of their initial level”. In addition, on XSepA [2], the “length of the lag phase of polymerization” value came to 3 min and the “critical concentration for XSepA polymerization” value was found to be 0.2 mg/mL.
